Reference: patent publication US9113629B2, “4-amino-6-(4-substituted-phenyl)-picolinates and 6-amino-2-(4-substituted-phenyl)-pyrimidine-4-carboxylates and their use as herbicides” (DOW AGROSCIENCES LLC, priority 2013, dated 2015)
Where two headings read alike, the source gives them in different places.

Columns and labels:
[1] = tested on: Key Grass and Sedge Weeds as well as Grass Crops; assay: Post-emergent Test II herbicidal activity (Table 6); type: in vivo; details: post-emergence, 336 h; for pest or weed control at 70 g/ha: application rate 70 g ai/ha; for pest or weed control at 140 g/ha: application rate 140 g ai/ha
Summary of the method: (§1)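 Post-emergence foliar spray, 187 L/ha, track sprayer at 43 cm above canopy. Carrier: acetone/water/IPA/DMSO/Atplus 411F/Triton X-155. Plants at 1st–2nd true leaf; subirrigated afterwards; % injury scored visually at 14 d.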

[2] = tested on: Key Broadleaf Weed and Crop Species; assay: Post-emergent Test II herbicidal activity (Table 5); type: in vivo; details: post-emergence, 336 h, post-emergent, 14 days after application; for pest or weed control at 70 g/ha: 70 g ai/ha; for pest or weed control at 140 g/ha: 140 g ai/ha
Summary of the method: as §1

[3] = Triticum aestivum, TRZSS (wheat), read-out: Visual Growth Reduction (%) 14 Days After Application, TRZSS
[4] = CYPES: yellow nutsedge (Cyperus esculentus), read-out: Visual Growth Reduction (%) 14 Days After Application, CYPES
[5] = DIGSA: crabgrass (Digitaria sanguinalis), read-out: Visual Growth Reduction (%) 14 Days After Application, DIGSA
[6] = ECHCG: barnyardgrass (Echinochloa crus-galli), read-out: Visual Growth Reduction (%) 14 Days After Application, ECHCG
[7] = ORYSA: rice (Oryza sativa), read-out: Visual Growth Reduction (%) 14 Days After Application, ORYSA
[8] = SETFA: giant foxtail (Setaria faberi), read-out: Visual Growth Reduction (%) 14 Days After Application, SETFA
[9] = SORVU: grain sorghum (Sorghum vulgare), read-out: Visual Growth Reduction (%) 14 Days After Application, SORVU
[10] = ZEAMX: maize, corn (Zea mays), read-out: Visual Growth Reduction (%) 14 Days After Application, ZEAMX
[11] = ABUTH: velvetleaf (Abutilon theophrasti), read-out: Visual Growth Reduction (%) 14 Days After Application ABUTH
[12] = AMARE: redroot pigweed (Amaranthus retroflexus), read-out: Visual Growth Reduction (%) 14 Days After Application AMARE
[13] = BRSNN: oilseed-rape, canola (Brassica napus), read-out: Visual Growth Reduction (%) 14 Days After Application BRSNN
[14] = CHEAL: lambsquarters (Chenopodium album), read-out: Visual Growth Reduction (%) 14 Days After Application CHEAL
[15] = EPHHL: wild poinsettia (Euphorbia heterophylla), read-out: Visual Growth Reduction (%) 14 Days After Application EPHHL
[16] = HELAN: sunflower (Helianthus annuus), read-out: Visual Growth Reduction (%) 14 Days After Application HELAN
[17] = VIOTR: wild pansy (Viola tricolor), read-out: Visual Growth Reduction (%) 14 Days After Application VIOTR

Compound | pest or weed control at 70 g/ha [1, 3] | pest or weed control at 140 g/ha [1, 3] | pest or weed control at 70 g/ha [1, 4] | pest or weed control at 140 g/ha [1, 4] | pest or weed control at 70 g/ha [1, 5] | pest or weed control at 140 g/ha [1, 5] | pest or weed control at 70 g/ha [1, 6] | pest or weed control at 140 g/ha [1, 6] | pest or weed control at 70 g/ha [1, 7] | pest or weed control at 140 g/ha [1, 7] | pest or weed control at 70 g/ha [1, 8] | pest or weed control at 140 g/ha [1, 8] | pest or weed control at 70 g/ha [1, 9] | pest or weed control at 140 g/ha [1, 9] | pest or weed control at 70 g/ha [1, 10] | pest or weed control at 140 g/ha [1, 10] | pest or weed control at 70 g/ha [2, 11] | pest or weed control at 140 g/ha [2, 11] | pest or weed control at 70 g/ha [2, 12] | pest or weed control at 140 g/ha [2, 12] | further results
C#Cc1ccc(-c2nc(C(=O)OC)c(C=C)c(N)c2F)cc1 [Compound 60, methyl 4-amino-6-(4-ethynylphenyl)-5-fluoro-3-vinylpicolinate] | 0 to 29% | 0 to 29% | 0 to 29% | 0 to 29% | 0 to 29% | 0 to 29% | 0 to 29% | 0 to 29% | 0 to 29% | 0 to 29% | 0 to 29% | 0 to 29% | 0 to 29% | 0 to 29% | 0 to 29% | 0 to 29% | 0 to 29% | 0 to 29% | 0 to 29% | 0 to 29% | pest or weed control at 70 g/ha [2, 13]: 0 to 29%; pest or weed control at 140 g/ha [2, 13]: 0 to 29%; pest or weed control at 70 g/ha [2, 14]: 0 to 29%; pest or weed control at 140 g/ha [2, 14]: 0 to 29%; pest or weed control at 70 g/ha [2, 15]: 0 to 29%; pest or weed control at 140 g/ha [2, 15]: 0 to 29%; pest or weed control at 70 g/ha [2, 16]: 45 to 59%; pest or weed control at 140 g/ha [2, 16]: 75 to 84%; pest or weed control at 70 g/ha [2, 17]: 0 to 29%; pest or weed control at 140 g/ha [2, 17]: 0 to 29%
C=Cc1c(C(=O)O)nc(-c2ccc(C(F)(F)F)c(F)c2F)c(F)c1N [Compound 61] | 30 to 44% | 30 to 44% | 45 to 59% | 45 to 59% | 0 to 29% | 0 to 29% | 45 to 59% | 60 to 74% | 0 to 29% | 0 to 29% | 0 to 29% | 0 to 29% | 45 to 59% | 60 to 74% | 60 to 74% | 60 to 74% | 85 to 94% | 95 to 100% | 95 to 100% | 95 to 100% | pest or weed control at 70 g/ha [2, 13]: 0 to 29%; pest or weed control at 140 g/ha [2, 13]: 0 to 29%; pest or weed control at 70 g/ha [2, 14]: 75 to 84%; pest or weed control at 140 g/ha [2, 14]: 85 to 94%; pest or weed control at 70 g/ha [2, 15]: 95 to 100%; pest or weed control at 140 g/ha [2, 15]: 95 to 100%; pest or weed control at 70 g/ha [2, 16]: 95 to 100%; pest or weed control at 140 g/ha [2, 16]: 95 to 100%; pest or weed control at 70 g/ha [2, 17]: 0 to 29%; pest or weed control at 140 g/ha [2, 17]: 0 to 29%
COC(=O)c1nc(-c2ccc(I)c(F)c2)cc(N)c1Cl [Compound 66, methyl 4-amino-3-chloro-6-(3-fluoro-4-iodophenyl)picolinate] | 0 to 29% | 0 to 29% | 45 to 59% | 95 to 100% | 60 to 74% | 60 to 74% | 0 to 29% | 60 to 74% | 0 to 29% | 0 to 29% | 0 to 29% | 0 to 29% | 75 to 84% | 85 to 94% | 0 to 29% | 0 to 29% | 85 to 94% | 85 to 94% | 95 to 100% | 95 to 100% | pest or weed control at 70 g/ha [2, 13]: 45 to 59%; pest or weed control at 140 g/ha [2, 13]: 45 to 59%; pest or weed control at 70 g/ha [2, 14]: 85 to 94%; pest or weed control at 140 g/ha [2, 14]: 85 to 94%; pest or weed control at 70 g/ha [2, 15]: 95 to 100%; pest or weed control at 140 g/ha [2, 15]: 95 to 100%; pest or weed control at 70 g/ha [2, 16]: 85 to 94%; pest or weed control at 140 g/ha [2, 16]: 85 to 94%; pest or weed control at 70 g/ha [2, 17]: 0 to 29%; pest or weed control at 140 g/ha [2, 17]: 0 to 29%
